From ChEMBL document CHEMBL4138241, “Synthesis and in vitro evaluation of novel substituted isatin-propylene-1H-1,2,3-triazole-4-methylene-moxifloxacin hybrids for their anti-mycobacterial activities” (Eur J Med Chem, 2018)
Values after ≈ are worked out from the molar mass of the structure shown.

The compounds below were run on Mycobacterium tuberculosis (assay: Antimycobacterial activity against isoniazid/rifampicin/ethambutol-resistant Mycobacterium tuberculosis after 3 days by rapid direct susceptibility test). Details: 72 h.
Format: functional
With `COc1c(N2C[C@H]3CCCN(Cc4cn(CCCN5C(=O)/C(=N/O)c6cc(C)ccc65)nn4)[C@H]3C2)c(F)cc2c(=O)c(C(=O)O)cn(C3CC3)c12` the MIC was 2 µg/mL (≈ 2.86 µM). For `COc1c(N2C[C@H]3CCCN(Cc4cn(CCCN5C(=O)C(=O)c6cc(C)ccc65)nn4)[C@H]3C2)c(F)cc2c(=O)c(C(=O)O)cn(C3CC3)c12`, the MIC was 1 µg/mL (≈ 1.46 µM). `CO/N=C1/C(=O)N(CCCn2cc(CN3CCC[C@@H]4CN(c5c(F)cc6c(=O)c(C(=O)O)cn(C7CC7)c6c5OC)C[C@@H]43)nn2)c2ccccc21` gave an MIC of 0.25 µg/mL (≈ 0.358 µM). `CCO/N=C1/C(=O)N(CCCn2cc(CN3CCC[C@@H]4CN(c5c(F)cc6c(=O)c(C(=O)O)cn(C7CC7)c6c5OC)C[C@@H]43)nn2)c2ccccc21` showed an MIC of 0.25 µg/mL (≈ 0.351 µM). `COc1c(N2C[C@H]3CCCN(Cc4cn(CCCN5C(=O)C(=O)c6ccccc65)nn4)[C@H]3C2)c(F)cc2c(=O)c(C(=O)O)cn(C3CC3)c12` was tested, and the MIC was 1 µg/mL (≈ 1.49 µM). `CO/N=C1/C(=O)N(CCCn2cc(CN3CCC[C@@H]4CN(c5c(F)cc6c(=O)c(C(=O)O)cn(C7CC7)c6c5OC)C[C@@H]43)nn2)c2ccc(F)cc21` was tested, and the MIC was 0.06 µg/mL (≈ 0.0837 µM). Work on `CCO/N=C1/C(=O)N(CCCn2cc(CN3CCC[C@@H]4CN(c5c(F)cc6c(=O)c(C(=O)O)cn(C7CC7)c6c5OC)C[C@@H]43)nn2)c2ccc(F)cc21` yielded an MIC of 0.12 µg/mL (≈ 0.164 µM). With `COc1c(N2C[C@H]3CCCN(Cc4cn(CCCN5C(=O)C(=O)c6cc(F)ccc65)nn4)[C@H]3C2)c(F)cc2c(=O)c(C(=O)O)cn(C3CC3)c12` the MIC was 0.25 µg/mL (≈ 0.364 µM). `COc1c(N2C[C@H]3CCCN(Cc4cn(CCCN5C(=O)/C(=N/O)c6ccccc65)nn4)[C@H]3C2)c(F)cc2c(=O)c(C(=O)O)cn(C3CC3)c12` was tested, and the MIC was 1 µg/mL (≈ 1.46 µM). `COc1c(N2C[C@H]3CCCN(Cc4cn(CCCN5C(=O)/C(=N/O)c6cc(F)ccc65)nn4)[C@H]3C2)c(F)cc2c(=O)c(C(=O)O)cn(C3CC3)c12` showed an MIC of 0.25 µg/mL (≈ 0.356 µM). For `CO/N=C1/C(=O)N(CCCn2cc(CN3CCC[C@@H]4CN(c5c(F)cc6c(=O)c(C(=O)O)cn(C7CC7)c6c5OC)C[C@@H]43)nn2)c2ccc(C)cc21`, the MIC was 0.5 µg/mL (≈ 0.701 µM). `CCO/N=C1/C(=O)N(CCCn2cc(CN3CCC[C@@H]4CN(c5c(F)cc6c(=O)c(C(=O)O)cn(C7CC7)c6c5OC)C[C@@H]43)nn2)c2ccc(C)cc21` gave an MIC of 0.25 µg/mL (≈ 0.344 µM). Work on `NNC(=O)c1ccncc1` [ISONIAZID] yielded an MIC greater than 128 µg/mL. Work on `COc1c(N2C[C@@H]3CCCN[C@@H]3C2)c(F)cc2c(=O)c(C(=O)O)cn(C3CC3)c12` [MOXIFLOXACIN] yielded an MIC of 0.12 µg/mL (≈ 0.299 µM). Work on `CO[C@H]1/C=C/O[C@@]2(C)Oc3c(C)c(O)c4c(O)c(c(/C=N/N5CCN(C)CC5)c(O)c4c3C2=O)NC(=O)/C(C)=C\C=C\[C@H](C)[C@H](O)[C@@H](C)[C@@H](O)[C@@H](C)[C@H](OC(C)=O)[C@@H]1C` [RIFAMPIN] yielded an MIC of 32 µg/mL (≈ 38.9 µM).

The compounds below were run on Mycobacterium tuberculosis (assay: Potency index, ratio of rifampicin MIC to compound MIC for antimycobacterial activity against isoniazid/rifampicin/ethambutol-resistant Mycobacterium tuberculosis). Details: not given.
Format: functional
With `CO/N=C1/C(=O)N(CCCn2cc(CN3CCC[C@@H]4CN(c5c(F)cc6c(=O)c(C(=O)O)cn(C7CC7)c6c5OC)C[C@@H]43)nn2)c2ccc(F)cc21` the Ratio was 2 - 2048.

Each compound was assayed on Mycobacterium tuberculosis (assay: Potency index, ratio of moxifloxacin MIC to compound MIC for antimycobacterial activity against isoniazid/rifampicin/ethambutol-resistant Mycobacterium tuberculosis). Details: not given.
Format: functional
For `CO/N=C1/C(=O)N(CCCn2cc(CN3CCC[C@@H]4CN(c5c(F)cc6c(=O)c(C(=O)O)cn(C7CC7)c6c5OC)C[C@@H]43)nn2)c2ccc(F)cc21`, the Ratio was 2 - 2048.

Each compound was assayed on Mycobacterium tuberculosis (assay: Potency index, ratio of isoniazid MIC to compound MIC for antimycobacterial activity against isoniazid/rifampicin/ethambutol-resistant Mycobacterium tuberculosis). Details: not given.
Format: functional
In the case of `CO/N=C1/C(=O)N(CCCn2cc(CN3CCC[C@@H]4CN(c5c(F)cc6c(=O)c(C(=O)O)cn(C7CC7)c6c5OC)C[C@@H]43)nn2)c2ccc(F)cc21`, the Ratio is reported as 2 - 2048.
